# Measurements reported in ChEMBL document CHEMBL4052759, “Discovery of DS79182026: A potent orally active hepcidin production inhibitor” (Bioorg Med Chem Lett, 2017).
# Tests used:
# [1] = molecular target: Insulin receptor (Homo sapiens) (UniProt P06213); assay: Inhibition of INSR (unknown origin) at 0.078 uM relative to control
# [2] = molecular target: Proto-oncogene tyrosine-protein kinase Src (Homo sapiens) (UniProt P12931); assay: Inhibition of SRC (unknown origin) at 0.078 uM relative to control
# [3] = molecular target: Tyrosine-protein kinase BTK (Homo sapiens) (UniProt Q06187); assay: Inhibition of BTK (unknown origin) at 0.078 uM relative to control
# [4] = molecular target: Serine/threonine-protein kinase PAK 2 (Homo sapiens) (UniProt Q13177); assay: Inhibition of PAK2 (unknown origin) at 0.078 uM relative to control
# [5] = molecular target: Tyrosine-protein kinase ABL1 (Homo sapiens) (UniProt P00519); assay: Inhibition of ABL (unknown origin) at 0.078 uM relative to control
# [6] = molecular target: Serine/threonine-protein kinase BRSK1 (Homo sapiens) (UniProt Q8TDC3); assay: Inhibition of BRSK1 (unknown origin) at 0.49 uM relative to control
# [7] = molecular target: RAC-alpha serine/threonine-protein kinase (Homo sapiens) (UniProt P31749); assay: Inhibition of AKT1 (unknown origin) at 0.49 uM relative to control
# [8] = molecular target: Protein kinase C beta type (Homo sapiens) (UniProt P05771); assay: Inhibition of PKC-beta1 (unknown origin) at 0.49 uM relative to control
# [9] = molecular target: NUAK family SNF1-like kinase 1 (Homo sapiens) (UniProt O60285); assay: Inhibition of NuaK1 (unknown origin) at 0.49 uM relative to control
# [10] = molecular target: Casein kinase I isoform gamma-1 (Homo sapiens) (UniProt Q9HCP0); assay: Inhibition of CK1-gamma1 (unknown origin) at 0.49 uM relative to control
# [11] = molecular target: Serine/threonine-protein kinase 25 (Homo sapiens) (UniProt O00506); assay: Inhibition of YSK (unknown origin) at 0.49 uM relative to control
# [12] = molecular target: Mitogen-activated protein kinase kinase kinase kinase 2 (Homo sapiens) (UniProt Q12851); assay: Inhibition of GCK (unknown origin) at 0.49 uM relative to control
# [13] = molecular target: Vascular endothelial growth factor receptor 1 (Homo sapiens) (UniProt P17948); assay: Inhibition of FLT1 (unknown origin) at 0.49 uM relative to control
# [14] = molecular target: T1, Serine/threonine-protein kinase 3 (Homo sapiens) (UniProt Q13188); assay: Inhibition of MST2 (unknown origin) at 0.49 uM relative to control
# T1 sequence (whole entry): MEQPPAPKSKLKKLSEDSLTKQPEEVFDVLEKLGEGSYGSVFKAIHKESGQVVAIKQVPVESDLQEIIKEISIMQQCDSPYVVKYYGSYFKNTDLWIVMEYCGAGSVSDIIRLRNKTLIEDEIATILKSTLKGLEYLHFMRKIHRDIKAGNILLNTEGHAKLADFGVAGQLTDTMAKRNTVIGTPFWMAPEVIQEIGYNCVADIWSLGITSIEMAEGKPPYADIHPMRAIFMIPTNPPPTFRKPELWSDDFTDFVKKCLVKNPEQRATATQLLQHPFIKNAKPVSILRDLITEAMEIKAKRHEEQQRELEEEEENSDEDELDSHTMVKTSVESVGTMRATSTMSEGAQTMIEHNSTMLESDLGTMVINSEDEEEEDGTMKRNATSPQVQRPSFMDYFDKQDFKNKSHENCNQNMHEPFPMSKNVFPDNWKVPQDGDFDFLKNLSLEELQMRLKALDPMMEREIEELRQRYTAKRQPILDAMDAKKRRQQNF
# [15] = molecular target: Casein kinase I isoform epsilon (Homo sapiens) (UniProt P49674); assay: Inhibition of CK1-epsilon (unknown origin) at 0.45 uM relative to control
# Homo sapiens = organism: Homo sapiens; assay: Inhibition of p70S6K (unknown origin) at 0.45 uM relative to control
# [16] = molecular target: Aurora kinase C (Homo sapiens) (UniProt Q9UQB9); assay: Inhibition of AurC (unknown origin) at 0.45 uM relative to control
# [17] = molecular target: Mast/stem cell growth factor receptor Kit (Homo sapiens) (UniProt P10721); assay: Inhibition of KIT (unknown origin) at 0.45 uM relative to control
# [18] = molecular target: Casein kinase I isoform gamma-2 (Homo sapiens) (UniProt P78368); assay: Inhibition of Casein kinase 1g2 (unknown origin) at 0.45 uM relative to control
# [19] = molecular target: Mitogen-activated protein kinase kinase kinase kinase 5 (Homo sapiens) (UniProt Q9Y4K4); assay: Inhibition of KHS1 (unknown origin) at 0.45 uM relative to control
# [20] = molecular target: SRSF protein kinase 2 (Homo sapiens) (UniProt P78362); assay: Inhibition of SRPK2 (unknown origin) at 0.45 uM relative to control
# [21] = molecular target: Cyclin-dependent kinase 2 (Homo sapiens) (UniProt P24941); assay: Inhibition of CDK2 (unknown origin) at 0.45 uM relative to control
# [22] = molecular target: MAP kinase-interacting serine/threonine-protein kinase 1 (Homo sapiens) (UniProt Q9BUB5); assay: Inhibition of MNK1 (unknown origin) at 0.45 uM relative to control
# [23] = molecular target: MAP kinase-activated protein kinase 2 (Homo sapiens) (UniProt P49137); assay: Inhibition of MAPKAPK2 (unknown origin) at 0.45 uM relative to control
# [24] = molecular target: AMPK alpha2/beta1/gamma1 (Homo sapiens) (UniProt P54646+P54619+Q9Y478); assay: Inhibition of AMPK-alpha2/beta1/gamma1 (unknown origin) at 0.45 uM relative to control; type: protein-complex assay
# [25] = molecular target: Phosphorylase b kinase gamma catalytic chain, skeletal muscle/heart isoform (Homo sapiens) (UniProt Q16816); assay: Inhibition of PhKg1 (unknown origin) at 0.45 uM relative to control
# [26] = molecular target: Serine/threonine-protein kinase Chk2 (Homo sapiens) (UniProt O96017); assay: Inhibition of CHK2 (unknown origin) at 0.45 uM relative to control
smiles,measurement,setting,value
COC(=O)Nc1noc2cc(-c3c(-c4ccccn4)n[nH]c3C)ccc12,inhibition,[1],1.7%
same,inhibition,[2],2.3%
same,inhibition,[3],7.7%
same,inhibition,[4],-5.3%
same,inhibition,[5],34%
Cc1[nH]nc(C2CC2)c1-c1ccc2c(NC(=O)C3CC3)noc2c1,inhibition,[6],1.7%
same,inhibition,[7],2.3%
same,inhibition,[8],5%
same,inhibition,[9],5.7%
same,inhibition,[10],0.7%
same,inhibition,[11],4.3%
same,inhibition,[12],11.3%
same,inhibition,[13],-2.3%
same,inhibition,[14],1%
Cc1n[nH]c(C)c1-c1ccc2c(NC(=O)c3ccc(N4CCN(C)CC4)cc3)n[nH]c2c1,inhibition,[15],2.7%
same,inhibition,Homo sapiens,1.3%
same,inhibition,[16],-1%
same,inhibition,[17],24.7%
same,inhibition,[18],0.7%
same,inhibition,[19],85%
same,inhibition,[20],0.3%
same,inhibition,[21],6%
same,inhibition,[22],6.7%
same,inhibition,[23],0.3%
same,inhibition,[24],26%
same,inhibition,[25],0.7%
same,inhibition,[26],3%
